In publication PMC9287434, “Inhibition of NMDA receptors through a membrane-to-channel path” (Nature Communications, 2022):
Counter-ions that a name gives are not always drawn.

Assays:
[1] = molecular target: T1, GluN1/2A receptors (Rattus norvegicus, UniProt P35439+Q00959); assay: MCI protocol, whole-cell recording from GluN1/2A NMDAR-expressing tsA201 cells; assay type: cell-based
T1 construct: expressed in transfected cells; host or cells: tsA201 cells (HEK 293 variant)
Experimental: (§1) Wildtype or mutant GluN1/2A receptors were used for all tsA201 cell experiments. 12–24 h after plating, tsA201 cells were transiently co-transfected using FuGENE6 Transfection Reagent (Promega) with mammalian expression plasmids that contained cDNAs encoding enhanced green fluorescent protein (EGFP in pRK7) for identification of transfected cells, the rat GluN1-1a subunit (referred to as GluN1; GenBank X63255 in pcDNA3.1), and the rat GluN2A subunit (GenBank M91561 in pcDNA1). For some experiments cells were transfected with GluN1 and EGFP:pIRES:GluN2A (a generous gift from Dr. Kasper Hansen (Hansen, unpublished)), which was constructed by inserting EGFP in pIRES (Clontech) under transcriptional control of the CMV promoter, and rat GluN2A cDNA (GenBank D13211) after the IRES sequence. Voltage clamp recordings were performed on tsA201 cells 12–48 h after transfection.
(§2) Pipettes were pulled from borosilicate capillary tubing (Sutter Instruments) on a Flaming Brown P-97 microelectrode puller (Sutter Instruments) and polished with a heated filament to a resistance of 2–5 MΩ. Whole-cell recordings were made from cells expressing eGFP identified by epifluorescence illumination on an inverted Zeiss Axiovert microscope. Cells were held at a Vm of −65 mV (corrected for a liquid junction potential of −6 mV) unless otherwise indicated. Whole-cell currents were recorded using an Axopatch 200B patch-clamp amplifier (Molecular Devices). Series resistance was compensated 80–90% using the prediction and correction circuitry. […] NMDAR responses were activated by fast perfusion of 1 mM glutamate (tsA201 cells) or 100 μM NMDA (cultured neurons).
Solutions were delivered to cells using a ten-barrel fast perfusion system. […] If channel blocker remained in the extracellular solution after the 1-s wash, measurements of MCI could have been contaminated by inhibition due to traditional open channel block.
We averaged minima of IControl2/IControl1 and IControl1/IControl2 to control for any possible rundown or runup of NMDAR response. For pH jump experiments, to control also for possible delayed effects of the pH jump on NMDAR responses, the minimum IMCI/IControl value was measured using an additional set of experiments.

[2] = cited from earlier work
[3] = molecular target: T1, GluN1/2A receptors; assay: Traditional channel block (coapplication of drug and agonists), tsA201 cells; assay type: cell-based
Experimental: as §1, §2

[4] = system: NMDAR; settings: 30 μM intracellular memantine; cited from earlier work
[5] = molecular target: T2, GluN1/2A(M630W) receptors (Rattus norvegicus, UniProt P35439+Q00959, M630W); assay: MCI protocol, GluN1/2A(M630W)
[6] = system: native NMDARs in cultured neurons; settings: cited from earlier work
[7] = pKa, charged/uncharged fraction in aqueous solution; assay type: physicochemical
From the text: [36]). […] We tested this prediction by measuring the dependence of MCI on extracellular pH. A similar approach was used to study membrane partitioning of local anesthetics during VGSC inhibition[23],[24],[27].

[8] = molecular target: T2, GluN1/2A(M630W) receptors; assay: Traditional [memantine]-inhibition curve, GluN1/2A(M630W)
[9] = molecular target: T3, GluN1/2A(M630A) receptors (Rattus norvegicus, UniProt P35439+Q00959, M630A); assay: Traditional [memantine]-inhibition curve, GluN1/2A(M630A)
[10] = molecular target: T3, GluN1/2A(M630A) receptors; assay: MCI protocol, GluN1/2A(M630A)
[11] = system: NMDARs; settings: cited from earlier work
[12] = set-up: method as in PMID 7086822; settings: measured pKa; cited from earlier work
[13] = system: native NMDARs in cultured neurons; assay: MCI protocol, neurons in primary culture; assay type: cell-based, rat; settings: 1 μM MK-801, pH 7.2, cultured neurons, 100 μM NMDA
[14] = system: cultured neurons; set-up: method as in PMID 8570022; settings: cultured neurons held at −70 mV; read-out: IC50 (previous value); cited from earlier work
[15] = pH 7.2, WT, −65 mV, read-out: traditional IC50
[16] = constant pH 9.0, 1 mM TMM, 165 μM DMM

T1 sequence (Q00959 23-1464, other chains not shown): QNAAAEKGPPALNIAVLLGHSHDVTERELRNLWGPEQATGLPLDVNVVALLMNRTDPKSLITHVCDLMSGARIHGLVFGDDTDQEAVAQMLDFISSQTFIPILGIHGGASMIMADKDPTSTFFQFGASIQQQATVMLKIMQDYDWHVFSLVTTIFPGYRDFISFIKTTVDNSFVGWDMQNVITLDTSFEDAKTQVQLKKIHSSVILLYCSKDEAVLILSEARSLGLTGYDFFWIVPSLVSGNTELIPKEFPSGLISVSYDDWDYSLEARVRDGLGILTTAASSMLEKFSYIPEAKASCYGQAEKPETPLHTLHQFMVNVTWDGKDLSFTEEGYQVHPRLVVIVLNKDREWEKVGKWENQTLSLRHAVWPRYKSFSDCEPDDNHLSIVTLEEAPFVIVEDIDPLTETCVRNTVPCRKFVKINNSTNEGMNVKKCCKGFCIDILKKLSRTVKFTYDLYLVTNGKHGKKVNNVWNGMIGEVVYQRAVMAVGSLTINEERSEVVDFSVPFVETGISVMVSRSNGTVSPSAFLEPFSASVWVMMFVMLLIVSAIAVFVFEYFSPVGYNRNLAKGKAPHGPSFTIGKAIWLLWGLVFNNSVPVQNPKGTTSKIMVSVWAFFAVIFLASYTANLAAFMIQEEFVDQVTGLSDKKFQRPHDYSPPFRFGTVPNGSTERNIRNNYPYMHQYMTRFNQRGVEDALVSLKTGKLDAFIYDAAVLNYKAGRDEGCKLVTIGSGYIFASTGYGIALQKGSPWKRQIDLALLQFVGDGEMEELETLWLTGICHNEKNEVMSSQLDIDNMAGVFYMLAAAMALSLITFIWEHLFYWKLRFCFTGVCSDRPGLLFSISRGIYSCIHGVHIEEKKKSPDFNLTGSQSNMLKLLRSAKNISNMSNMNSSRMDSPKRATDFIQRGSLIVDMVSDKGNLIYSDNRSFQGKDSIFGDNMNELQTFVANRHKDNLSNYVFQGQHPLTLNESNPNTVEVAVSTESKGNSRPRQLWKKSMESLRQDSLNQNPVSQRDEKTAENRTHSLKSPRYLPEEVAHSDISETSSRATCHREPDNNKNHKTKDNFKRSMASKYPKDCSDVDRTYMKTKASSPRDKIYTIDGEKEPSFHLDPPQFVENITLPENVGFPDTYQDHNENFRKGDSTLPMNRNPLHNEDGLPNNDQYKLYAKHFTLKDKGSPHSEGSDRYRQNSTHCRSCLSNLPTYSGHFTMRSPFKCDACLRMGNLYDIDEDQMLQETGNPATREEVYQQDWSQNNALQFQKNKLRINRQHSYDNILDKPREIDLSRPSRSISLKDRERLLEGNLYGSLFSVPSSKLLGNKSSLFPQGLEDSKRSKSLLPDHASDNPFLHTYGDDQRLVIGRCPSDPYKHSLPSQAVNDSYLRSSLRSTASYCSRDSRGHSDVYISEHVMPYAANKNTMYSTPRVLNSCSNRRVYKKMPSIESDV
T3 sequence (Q00959 23-1464 M630A, other chains not shown): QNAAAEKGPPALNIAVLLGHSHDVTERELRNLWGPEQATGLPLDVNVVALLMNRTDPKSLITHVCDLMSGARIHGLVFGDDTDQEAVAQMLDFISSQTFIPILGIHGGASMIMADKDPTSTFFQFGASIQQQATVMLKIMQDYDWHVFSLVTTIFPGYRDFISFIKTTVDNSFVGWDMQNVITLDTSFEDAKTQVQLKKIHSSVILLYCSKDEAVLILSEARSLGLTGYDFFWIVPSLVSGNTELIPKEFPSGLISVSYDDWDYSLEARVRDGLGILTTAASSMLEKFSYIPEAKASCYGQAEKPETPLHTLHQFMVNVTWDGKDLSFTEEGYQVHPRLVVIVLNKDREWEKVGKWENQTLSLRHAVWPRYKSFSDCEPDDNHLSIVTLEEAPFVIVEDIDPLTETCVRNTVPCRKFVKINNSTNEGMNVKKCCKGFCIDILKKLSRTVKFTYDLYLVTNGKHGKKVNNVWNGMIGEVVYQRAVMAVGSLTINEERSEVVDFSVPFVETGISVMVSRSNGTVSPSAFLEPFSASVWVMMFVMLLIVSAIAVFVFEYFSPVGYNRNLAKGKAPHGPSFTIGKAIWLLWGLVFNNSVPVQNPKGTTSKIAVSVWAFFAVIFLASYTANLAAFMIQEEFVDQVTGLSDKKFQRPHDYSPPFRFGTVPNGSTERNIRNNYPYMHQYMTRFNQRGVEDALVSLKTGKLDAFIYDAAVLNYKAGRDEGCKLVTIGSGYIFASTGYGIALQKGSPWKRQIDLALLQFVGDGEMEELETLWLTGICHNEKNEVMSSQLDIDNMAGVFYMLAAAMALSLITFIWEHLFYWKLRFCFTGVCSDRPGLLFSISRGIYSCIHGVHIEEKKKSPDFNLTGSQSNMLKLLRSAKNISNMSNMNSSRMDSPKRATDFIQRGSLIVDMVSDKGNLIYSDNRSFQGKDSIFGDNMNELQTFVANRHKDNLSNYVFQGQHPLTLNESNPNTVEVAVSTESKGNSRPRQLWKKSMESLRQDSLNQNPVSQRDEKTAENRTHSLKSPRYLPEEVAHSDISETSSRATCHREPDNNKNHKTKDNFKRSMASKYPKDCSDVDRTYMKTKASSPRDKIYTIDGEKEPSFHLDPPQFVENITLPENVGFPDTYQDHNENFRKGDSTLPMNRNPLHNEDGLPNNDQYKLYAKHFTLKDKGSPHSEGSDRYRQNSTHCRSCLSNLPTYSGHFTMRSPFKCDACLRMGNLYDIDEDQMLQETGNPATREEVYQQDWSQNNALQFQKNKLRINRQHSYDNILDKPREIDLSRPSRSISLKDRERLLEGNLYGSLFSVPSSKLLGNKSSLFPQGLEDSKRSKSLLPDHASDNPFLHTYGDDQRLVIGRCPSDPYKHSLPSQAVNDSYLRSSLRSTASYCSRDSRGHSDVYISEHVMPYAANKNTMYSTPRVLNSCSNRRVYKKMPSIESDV
T2 sequence (Q00959 23-1464 M630W, other chains not shown): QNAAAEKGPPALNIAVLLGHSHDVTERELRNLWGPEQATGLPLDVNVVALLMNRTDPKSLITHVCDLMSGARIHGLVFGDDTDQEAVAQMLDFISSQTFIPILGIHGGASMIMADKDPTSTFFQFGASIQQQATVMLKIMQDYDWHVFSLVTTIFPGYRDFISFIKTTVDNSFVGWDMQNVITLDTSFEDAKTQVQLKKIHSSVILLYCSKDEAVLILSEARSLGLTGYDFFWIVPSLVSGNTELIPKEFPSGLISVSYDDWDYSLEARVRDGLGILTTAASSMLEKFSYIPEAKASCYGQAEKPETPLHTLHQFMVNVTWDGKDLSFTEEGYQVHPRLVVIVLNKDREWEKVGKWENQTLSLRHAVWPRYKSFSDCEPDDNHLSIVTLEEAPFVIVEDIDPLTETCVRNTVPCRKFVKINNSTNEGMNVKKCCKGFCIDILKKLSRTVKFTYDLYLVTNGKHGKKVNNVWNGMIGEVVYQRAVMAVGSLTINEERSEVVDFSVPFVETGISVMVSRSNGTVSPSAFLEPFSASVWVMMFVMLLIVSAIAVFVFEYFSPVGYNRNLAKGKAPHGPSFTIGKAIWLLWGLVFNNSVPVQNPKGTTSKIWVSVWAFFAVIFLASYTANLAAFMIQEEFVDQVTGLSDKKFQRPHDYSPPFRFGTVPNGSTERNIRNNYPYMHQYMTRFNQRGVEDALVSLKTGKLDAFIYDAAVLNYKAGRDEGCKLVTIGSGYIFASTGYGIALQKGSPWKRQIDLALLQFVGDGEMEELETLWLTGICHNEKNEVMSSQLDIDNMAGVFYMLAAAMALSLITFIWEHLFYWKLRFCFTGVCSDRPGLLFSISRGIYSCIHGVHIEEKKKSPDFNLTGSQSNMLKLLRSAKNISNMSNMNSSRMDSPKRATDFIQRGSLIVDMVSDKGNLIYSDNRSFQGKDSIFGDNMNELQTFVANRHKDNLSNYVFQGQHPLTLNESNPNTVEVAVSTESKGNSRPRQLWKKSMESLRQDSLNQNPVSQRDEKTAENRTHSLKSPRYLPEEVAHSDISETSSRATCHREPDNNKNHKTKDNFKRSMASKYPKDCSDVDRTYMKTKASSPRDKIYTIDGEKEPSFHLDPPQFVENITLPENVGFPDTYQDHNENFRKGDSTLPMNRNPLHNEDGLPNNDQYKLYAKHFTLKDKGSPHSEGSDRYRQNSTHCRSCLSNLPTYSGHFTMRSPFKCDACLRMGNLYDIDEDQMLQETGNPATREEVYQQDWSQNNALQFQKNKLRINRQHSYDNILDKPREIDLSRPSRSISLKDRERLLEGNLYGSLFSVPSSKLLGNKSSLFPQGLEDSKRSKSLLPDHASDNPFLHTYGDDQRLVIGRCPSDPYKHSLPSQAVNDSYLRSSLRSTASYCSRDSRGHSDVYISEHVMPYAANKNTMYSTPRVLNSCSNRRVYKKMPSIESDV

Compound: CC12CC3CC1(C)C1(C)CC3(CN)CC21C [RL-208]
- Min IMCI/IControl ([1]; 20 μM RL-208, pH 7.2): 0.275 ± 0.017
- MCI exhibited (in words) ([1]; pH 7.2): displayed MCI

Compound: c1ccc(C2(N3CCCCC3)CCCCC2)cc1 [PCP, phencyclidine]
- Min IMCI/IControl ([1]; 10 μM PCP, pH 7.2): 0.409 ± 0.063
- MCI exhibited (in words) ([1]; pH 7.2): displayed MCI

Compound: CN1CC[C@@]23CCCC[C@@H]2[C@@H]1Cc1ccc(O)cc13 [dextrorphan]
- Min IMCI/IControl ([1]; 50 μM dextrorphan, pH 7.2): 0.549 ± 0.043
- MCI exhibited (in words) ([1]; pH 7.2): displayed MCI

Compound: CC12CC3CC(C)(C1)CC(N)(C3)C2 [memantine]
- LogP [2]: ~ 3
- IC50 ([3]; traditional IC50, pH 7.2, WT, −65 mV): 1.71 ± 0.06 µM
- IC50 ([3]; traditional IC50, pH 9.0, WT): 3.43 ± 0.61 µM
- NMDAR inhibition by intracellular drug (in words) [4]: not to cause NMDAR inhibition
- IC50 [5]: 148 ± 2.8 µM
- MCI of native NMDARs (in words) [6]: subject to MCI
- Uncharged % ([7]; pH 6.3): 0.008%
- [Uncharged] at 100 μM ([7]; pH 6.3): 8 nM
- Uncharged % ([7]; pH 7.2): 0.063%
- [Uncharged] at 100 μM ([7]; pH 7.2): 63 nM
- Uncharged % ([7]; pH 9.0): 3.8%
- [Uncharged] at 100 μM ([7]; pH 9.0): 3800 nM
- IC50 [8]: 1.49 ± 0.2 µM
- IC50 [9]: 1.65 ± 0.09 µM
- IC50 [10]: 51.4 ± 5.1 µM
- MCI at depolarized Vm (in words) ([11]; 100 μM memantine, 35 mV): nearly abolished
- time constant of current decay following the preinhibition peak ([1]; 100 μM memantine, pH 7.2, from point-by-point ratios): 46.4 ± 4.1 ms
- time constant of MCI onset ([1]; 100 μM memantine, pH 7.2, likely faster than decay time constant): < 46.4 ms
- IC50 ([1]; Memantine MCI IC50, pH 7.2 (Fig. 1h data set)): 71 ± 1.7 µM
- IC50 ([1]; Memantine MCI IC50, pH 9.0 jump): 8.77 ± 3.26 µM
- IC50 ([1]; Memantine MCI IC50 of WT receptors, pH 7.2 (additional data set, Fig. 6h)): 68.6 ± 4.8 µM
- potency estimated from few doses ([1]; tsA201, pH 6.3, read-out: Memantine MCI IC50): 841 ± 5 µM
- pKa [12]: 10.4

Compound: CNC1(c2ccccc2Cl)CCCCC1=O (stereo not shown) [ketamine]
- MCI exhibited (in words) [11]: does not exhibit MCI

Compound: CC12CC3CC(C)(C1)CC([N+](C)(C)C)(C3)C2 [TMM, N,N,N,3,5-pentamethyladamantan-1-ammonium iodide]
- IC50 [3, 15]: 72.3 ± 14.2 µM
- Min IMCI/IControl ([1]; 1 mM TMM, constant pH 9.0): 0.987 ± 0.039
- MCI exhibited (in words) [1, 16]: no MCI

Compound: C[C@]12N[C@H](Cc3ccccc31)c1ccccc12 [MK-801]
- Min IMCI/IControl [13]: 0.612 ± 0.019
- Min IMCI/IControl ([1]; 1 μM MK-801, pH 7.2): 0.459 ± 0.035
- τM of MCI onset ([1]; 1 μM MK-801, pH 7.2): 1002 ± 135 ms
- Min IMCI/IControl ([1]; 10 μM MK-801, pH 7.2): 0.097 ± 0.029
- τM of MCI onset ([1]; 10 μM MK-801, pH 7.2): 311 ± 59 ms
- MCI exhibited (in words) ([1]; pH 7.2): displayed MCI
- τM faster at 10 μM than at 1 μM MK-801 ([1]; pH 7.2): ~ 3 fold

Compound: CN(C)C12CC3CC(C)(CC(C)(C3)C1)C2.Cl [DMM, N,N,3,5-tetramethyladamantan-1-amine hydrochloride]
- IC50 [3, 15]: 16.8 ± 1.5 µM
- IC50 [14]: 28.4 ± 1.4 µM
- melting point: 180 °C
- Min IMCI/IControl ([1]; 165 μM DMM, constant pH 9.0): 0.402 ± 0.037
- MCI exhibited (in words) [1, 16]: strong MCI

Compound: CC12CC3CC(C)(C1)CC([N+](C)(C)C)(C3)C2 (as salt: iodide) [TMM, N,N,N,3,5-pentamethyladamantan-1-ammonium iodide]
- melting point: > 200 °C (dec.)
